Laboratory results: patent US20150018546A1, “HETEROCYCLIC COMPOUND HAVING ANTI-HIV ACTIVITY” (TOYAMA CHEMICAL CO., LTD., priority 2012, published 2015)
Where a name gives a salt, the structure may show the parent alone.

System: HIV-1 (JRCSF)
Assay: Anti-HIV activity in MaRBLE cells infected with HIV-1 (JRCSF), luciferase readout
Type: cell-based
Conditions: Human immunodeficiency virus 1, 168 h, read-out: Anti-HIV activity IC50
Protocol: This test was conducted with reference to Journal of Clinical Microbiology, 2007, Vol. 45, p. 477-487.
The anti-HIV activity was evaluated using MaRBLE cells in which a luciferase gene to be expressed under the control of HIV-1 LTR and a CCR5 gene, etc. were introduced in human T lymphocyte-derived HPB-M(a).
A fresh medium or each appropriately diluted test compound was dispensed to 96-well plates to prepare drug solution-containing plates.
The MaRBLE cells were suspended in RPMI1640 containing 10% FCS (fetal calf serum) and penicillin/streptomycin and infected with HIV-1 (JRCSF). Then, the cells were inoculated to the drug solution-containing plates (1×10^5 cells/well). The same number of uninfected cells were inoculated as a control group to the drug solution-containing plates.
After culture at 37° C. for 7 days in a 5% CO2 atmosphere, the intracellular luciferase activity was measured using Steady-Glo Luciferase assay system (Promega Corp.).
The rate of viral proliferation was determined according to the following expression:
Rate of viral proliferation(%)=(A/B)×100
A=(Firefly luciferase activity of the compound-supplemented well)−(Firefly luciferase activity of the uninfected cells)
B=(Firefly luciferase activity of the compound-free well)−(Firefly luciferase activity of the uninfected cells)
IC50 of the compound was calculated by a plot with concentration as the logarithm and the rate of viral proliferation as the real part using the FORECAST function (linear regression method) of Microsoft Office Excel 2003.

**Q.** For `Cc1ncnc2c1c(NCCCN(C)C)cc(=O)n2O` [Example 155, 5-((3-(dimethylamino)propyl)amino)-8-hydroxy-4-methylpyrido[2,3-d]pyrimidin-7(8H)-one hydrochloride], which IC50 is on record?
**A.** 230 nM

Same assay, conditions: Human immunodeficiency virus 1, 168 h; MaRBLE cells (human T lymphocyte-derived HPB-M(a)) infected with HIV-1 (JRCSF); 7 days culture; rate of viral proliferation by luciferase activity; read-out: Anti-HIV activity IC50

**Q.** With `Cc1ncnc2c1c(NCc1ccccc1NS(C)(=O)=O)cc(=O)n2O` [Example 122, N-(2-(((8-hydroxy-4-methyl-7-oxo-7,8-dihydropyrido[2,3-d]pyrimidin-5-yl)amino)methyl)phenyl)methanesulfonamide] as the compound, how does the IC50 read?
**A.** 100 nM

**Q.** How did the IC50 turn out when `Cc1ncnc2c1c(NCc1ccccc1N)cc(=O)n2O` [Example 123, 5-((2-aminobenzyl)amino)-8-hydroxy-4-methylpyrido[2,3-d]pyrimidin-7(8H)-one] was run?
**A.** 78 nM

**Q.** How did the IC50 turn out when `Cc1ncnc2c1c(NCc1cnc3ccccc3c1)cc(=O)n2O` [Example 124, 8-hydroxy-4-methyl-5-(((quinolin-3-yl)methyl)amino)pyrido[2,3-d]pyrimidin-7(8H)-one] was run?
**A.** 58 nM

**Q.** Which IC50 does the source give for `Cc1ncnc2c1c(NCc1ccc(N)cc1)cc(=O)n2O` [Example 125, 5-((4-aminobenzyl)amino)-8-hydroxy-4-methylpyrido[2,3-d]pyrimidin-7(8H)-one] here?
**A.** 63 nM

**Q.** How did the IC50 turn out when `Cc1ncnc2c1c(NCc1cccc(NS(C)(=O)=O)c1)cc(=O)n2O` [Example 126, N-(3-(((8-hydroxy-4-methyl-7-oxo-7,8-dihydropyrido[2,3-d]pyrimidin-5-yl)amino)methyl)phenyl)methanesulfonamide] was run?
**A.** 140 nM

**Q.** For `Cc1ncnc2c1c(N)cc(=O)n2O` [Example 127, 5-amino-8-hydroxy-4-methylpyrido[2,3-d]pyrimidin-7(8H)-one], which IC50 is on record?
**A.** 150 nM

**Q.** For `Cc1ncnc2c1c(NCc1ccc(NS(C)(=O)=O)cc1)cc(=O)n2O` [Example 128, N-(4-(((8-hydroxy-4-methyl-7-oxo-7,8-dihydropyrido[2,3-d]pyrimidin-5-yl)amino)methyl)phenyl)methanesulfonamide], which IC50 is on record?
**A.** 270 nM

**Q.** How did the IC50 turn out when `Cc1ncnc2c1c(NCc1cccc(N)c1)cc(=O)n2O` [Example 129, 5-((3-aminobenzyl)amino)-8-hydroxy-4-methylpyrido[2,3-d]pyrimidin-7(8H)-one] was run?
**A.** 91 nM

**Q.** With `Cc1ncnc2c1c(NCc1cccc(CN)c1)cc(=O)n2O` [Example 132, 5-((3-(aminomethyl)benzyl)amino)-8-hydroxy-4-methylpyrido[2,3-d]pyrimidin-7(8H)-one] as the compound, how does the IC50 read?
**A.** 210 nM

**Q.** With `Cc1ncnc2c1c(NCc1cnccc1C(F)(F)F)cc(=O)n2O` [Example 133, 8-hydroxy-4-methyl-5-(((4-(trifluoromethyl)pyridin-3-yl)methyl)amino)pyrido[2,3-d]pyrimidin-7(8H)-one] as the compound, how does the IC50 read?
**A.** 59 nM

**Q.** For `Cc1ncnc2c1c(NCc1ccc(CN)cc1)cc(=O)n2O` [Example 134], which IC50 is on record?
**A.** 140 nM

**Q.** Which IC50 does the source give for `Cc1cncc(CNc2cc(=O)n(O)c3ncnc(C)c23)c1` [Example 136, 8-hydroxy-4-methyl-5-(((5-methylpyridin-3-yl)methyl)amino)pyrido[2,3-d]pyrimidin-7(8H)-one] here?
**A.** 120 nM

**Q.** Which IC50 does the source give for `Cc1cccc(CNc2cc(=O)n(O)c3ncnc(C)c23)c1` [Example 137, 8-hydroxy-4-methyl-5-((3-methylbenzyl)amino)pyrido[2,3-d]pyrimidin-7(8H)-one] here?
**A.** 82 nM

**Q.** How did the IC50 turn out when `Cc1ncnc2c1c(NCc1ccccc1N1CCCCC1)cc(=O)n2O` [Example 138, 8-hydroxy-4-methyl-5-((2-(piperidin-1-yl)benzyl)amino)pyrido[2,3-d]pyrimidin-7(8H)-one] was run?
**A.** 94 nM

**Q.** How did the IC50 turn out when `Cc1ncnc2c1c(NCc1ccccc1CN)cc(=O)n2O` [Example 140, 5-((2-(aminomethyl)benzyl)amino)-8-hydroxy-4-methylpyrido[2,3-d]pyrimidin-7(8H)-one] was run?
**A.** 190 nM

**Q.** How did the IC50 turn out when `Cc1ncnc2c1c(NCc1cncc3ccccc13)cc(=O)n2O` [Example 141, 8-hydroxy-5-(((isoquinolin-4-yl)methyl)amino)-4-methylpyrido[2,3-d]pyrimidin-7(8H)-one] was run?
**A.** 46 nM

**Q.** How did the IC50 turn out when `CC(=O)Nc1ccc(CNc2cc(=O)n(O)c3ncnc(C)c23)cc1` [Example 142, N-(4-(((8-hydroxy-4-methyl-7-oxo-7,8-dihydropyrido[2,3-d]pyrimidin-5-yl)amino)methyl)phenyl)acetamide] was run?
**A.** 130 nM

**Q.** Which IC50 does the source give for `Cc1ncnc2c1c(NCc1cccc(CN(C)C)c1)cc(=O)n2O` [Example 143, 5-((3-((dimethylamino)methyl)benzyl)amino)-8-hydroxy-4-methylpyrido[2,3-d]pyrimidin-7(8H)-one] here?
**A.** 120 nM

**Q.** For `Cc1ncnc2c1c(NCc1ccc(OCCO)cc1)cc(=O)n2O` [Example 144, 8-hydroxy-5-((4-(2-hydroxyethoxy)benzyl)amino)-4-methylpyrido[2,3-d]pyrimidin-7(8H)-one], which IC50 is on record?
**A.** 90 nM

**Q.** `Cc1ncnc2c1c(NCc1ccc(NS(=O)(=O)c3ccccc3)cc1)cc(=O)n2O` [Example 145, N-(4-(((8-hydroxy-4-methyl-7-oxo-7,8-dihydropyrido[2,3-d]pyrimidin-5-yl)amino)methyl)phenyl)benzenesulfonamide] was tested. Which IC50 did it give?
**A.** 490 nM

**Q.** With `Cc1ncnc2c1c(NCc1cccnc1OCC(F)(F)F)cc(=O)n2O` [Example 147, 8-hydroxy-4-methyl-5-(((2-(2,2,2-trifluoroethoxy)pyridin-3-yl)methyl)amino)pyrido[2,3-d]pyrimidin-7(8H)-one] as the compound, how does the IC50 read?
**A.** 83 nM

**Q.** With `Cc1ncnc2c1c(NCc1ccc(C(F)(F)F)cc1)cc(=O)n2O` [Example 148, 8-hydroxy-4-methyl-5-((4-(trifluoromethyl)benzyl)amino)pyrido[2,3-d]pyrimidin-7(8H)-one] as the compound, how does the IC50 read?
**A.** 71 nM

**Q.** For `Cc1ncnc2c1c(NCc1ccccc1C(F)(F)F)cc(=O)n2O` [Example 149, 8-hydroxy-4-methyl-5-((2-(trifluoromethyl)benzyl)amino)pyrido[2,3-d]pyrimidin-7(8H)-one], which IC50 is on record?
**A.** 26 nM

**Q.** How did the IC50 turn out when `Cc1ncnc2c1c(NCc1ccccn1)cc(=O)n2O` [Example 150, 8-hydroxy-4-methyl-5-(((pyridin-2-yl)methyl)amino)pyrido[2,3-d]pyrimidin-7(8H)-one] was run?
**A.** 100 nM

**Q.** For `Cc1ncnc2c1c(NCc1cccc(F)c1)cc(=O)n2O` [Example 151, 5-((3-fluorobenzyl)amino)-8-hydroxy-4-methylpyrido[2,3-d]pyrimidin-7(8H)-one], which IC50 is on record?
**A.** 54 nM

**Q.** For `Cc1ncnc2c1c(NCc1ccc(C(C)C)cc1)cc(=O)n2O` [Example 152, 8-hydroxy-5-((4-isopropylbenzyl)amino)-4-methylpyrido[2,3-d]pyrimidin-7(8H)-one], which IC50 is on record?
**A.** 95 nM

**Q.** Which IC50 does the source give for `Cc1ncnc2c1c(NCc1ccco1)cc(=O)n2O` [Example 153, 5-((2-furylmethyl)amino)-8-hydroxy-4-methylpyrido[2,3-d]pyrimidin-7(8H)-one] here?
**A.** 130 nM

**Q.** With `Cc1ncnc2c1c(NCc1ncc[nH]1)cc(=O)n2O` [Example 154, 8-hydroxy-5-(((1H-imidazol-2-yl)methyl)amino)-4-methylpyrido[2,3-d]pyrimidin-7(8H)-one] as the compound, how does the IC50 read?
**A.** 720 nM

**Q.** With `Cc1ncnc2c1c(NCC1CCN(C)CC1)cc(=O)n2O` [Example 156, 8-hydroxy-4-methyl-5-(((1-methylpiperidin-4-yl)methyl)amino)pyrido[2,3-d]pyrimidin-7(8H)-one] as the compound, how does the IC50 read?
**A.** 590 nM

**Q.** For `COc1ncccc1CNc1cc(=O)n(O)c2ncnc(C)c12` [Example 157, 8-hydroxy-5-(((2-methoxypyridin-3-yl)methyl)amino)-4-methylpyrido[2,3-d]pyrimidin-7(8H)-one], which IC50 is on record?
**A.** 44 nM

**Q.** For `COc1ccc(CNc2cc(=O)n(O)c3ncnc(C)c23)cn1` [Example 158, 8-hydroxy-5-(((2-methoxypyridin-5-yl)methyl)amino)-4-methylpyrido[2,3-d]pyrimidin-7(8H)-one], which IC50 is on record?
**A.** 74 nM

**Q.** Which IC50 does the source give for `Cc1ncnc2c1c(NCc1ccccc1OC(F)(F)F)cc(=O)n2O` [Example 160, 8-hydroxy-4-methyl-5-((2-(trifluoromethoxy)benzyl)amino)pyrido[2,3-d]pyrimidin-7(8H)-one] here?
**A.** 68 nM

**Q.** `Cc1ncnc2c1c(NCCCc1cccnc1)cc(=O)n2O` [Example 161, 8-hydroxy-4-methyl-5-((3-(pyridin-3-yl)propyl)amino)pyrido[2,3-d]pyrimidin-7(8H)-one] was tested. Which IC50 did it give?
**A.** 180 nM

**Q.** With `Cc1ncnc2c1c(NCc1ccc(N)nc1)cc(=O)n2O` [Example 162, 5-(((6-aminopyridin-3-yl)methyl)amino)-8-hydroxy-4-methylpyrido[2,3-d]pyrimidin-7(8H)-one] as the compound, how does the IC50 read?
**A.** 67 nM

**Q.** With `Cc1ncnc2c1c(NC(C)c1ccccn1)cc(=O)n2O` (stereo not shown) [Example 165, 8-hydroxy-4-methyl-5-((1-(pyridin-2-yl)ethyl)amino)pyrido[2,3-d]pyrimidin-7(8H)-one] as the compound, how does the IC50 read?
**A.** 160 nM

Same assay, conditions: MaRBLE cells (human T lymphocyte-derived HPB-M(a)) infected with HIV-1 (JRCSF); 7 days culture; rate of viral proliferation by luciferase activity; read-out: Anti-HIV activity IC50

**Q.** With `Cc1ncnc2c1c(NCc1ccc(Oc3ccccc3)nc1)cc(=O)n2O` [Example 146, 8-hydroxy-4-methyl-5-(((6-phenoxypridin-3-yl)methyl)amino)pyrido[2,3-d]pyrimidin-7(8H)-one] as the compound, how does the IC50 read?
**A.** 100 nM
